Results from US9988407B2, “Prodrugs of prostate specific membrane antigen (PSMA) inhibitor” (THE JOHNS HOPKINS UNIVERSITY, priority 2014, dated 2018).
Where “and” joins values, the source holds several entries; their conditions need not be identical. Equal entries are not always repeated.

What was measured:
[1] = Chemical stability in HBSS buffer (pH 7.4) / simulated gastric fluid; assay type: physicochemical; settings: chemical hydrolysis / HBSS buffer
Outline: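 Prodrugs at 10 μM were incubated at 37° C for 1 h in simulated gastric fluid (pH 1.2) or HBSS (pH 7.4), sampled at 0, 30 and 60 min. Remaining prodrug was quantified by LC/MS/MS (positive ESI) as analyte/internal standard peak-area ratio, expressed as percentage remaining.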

[2] = Metabolic stability in human liver microsomes; assay type: in vitro ADME; settings: 10 μM, 37° C.
Outline: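 Prodrugs at 10 μM were incubated in plasma or liver microsomes at 37° C, with triplicate samples taken at 0, 30 and 60 min and quenched in cold acetonitrile. Loss of prodrug was followed by LC/MS/MS in positive electrospray mode. Percent remaining came from the analyte-to-internal-standard peak-area ratio.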

[3] = In vivo pharmacokinetics in mice, peroral, bioanalysis method 2 (2-PMPA release); settings: rodents and dogs
Protocol: Blood was obtained via cardiac puncture and tissue dissected at 0 min, 15 min, 30 min, 1 h, 2 h, and 4 h post dose (n=3 per time point). Single time point studies were conducted at 30 min (N=3) following dosing. Plasma was harvested from blood by centrifugation. Mean concentration-time data was used for pharmacokinetic (PK) analysis. Non-compartmental-analysis module in WinNonlin® (version 5.3) was used to assess pharmacokinetic parameters. Peak plasma concentrations (Cmax) and time to Cmax (Tmax) were the observed values. Area under the curve (AUC) was calculated by log-linear (p.o.) trapezoidal rule to the end of sample collection (AUClast) and extrapolated to infinity (AUC0-∞) by dividing the last quantifiable concentration by the terminal disposition rate constant (ke). […] The tissues were stored in −20° C. for 1 h and then homogenized. The calibration curve for the tissues was developed using naïve mouse brains from untreated animals as a matrix. For sciatic nerve, the nerves were weighed and homogenized in 50 μL methanol and the calibration curve was developed using naïve sciatic nerves from untreated animals as a matrix. The samples were vortexed and centrifuged. […] Supernatant was dried under a gentle stream of nitrogen at 45° C. and the residue reconstituted with 75 μL of acetonitrile and vortexed. 25 μL of derivatizing agent N-tert-Butyldimethysilyl-N-methyltrifluoro-acetamide (MTBSTFA) was added to microcentrifuge tubes, vortexed, and heated at ˜60 OC for 40 min. At the end of 40 min, the derivatized samples ˜75 μL were transferred to a 250 μL polypropylene vials and were analyzed via LC/MS/MS. Chromatographic analysis was performed using an Accela™ ultra high-performance system consisting of an analytical pump, and an autosampler coupled with TSQ Vantage mass spectrometer (Thermo Fisher Scientific Inc., Waltham Mass.). […] The total run time for each analyte was 5.0 min. Chromatographic analysis will be performed on Accela UPLC.

[4] = Metabolic stability in monkey liver microsomes; assay type: in vitro ADME; settings: 10 μM, 37° C.
Protocol: (§1) For metabolic stability, plasma (mouse, dog, monkey and human) and liver microsomes (mouse, dog, monkey and human) were used. For stability, prodrugs (10 μM) were spiked in each matrix and incubated in an orbital shaker at 37° C. At predetermined times (0, 30 and 60 min), 100 μL aliquots of the mixture in triplicate were removed and the reaction quenched by addition of three times the volume of ice cold acetonitrile spiked with the internal standard (losartan 5 μM). The samples were vortexed for 30 s and centrifuged 12000 g for 10 min. 50 μL supernatant diluted with 50 μL water was transferred to a 250 μL polypropylene vial sealed with a Teflon cap. Prodrug disappearance was monitored over time using a liquid chromatography and tandem mass spectrometry (LC/MS/MS) method as described below.
(§2) For LC/MS/MS, prodrugs were separated with Thermo Scientific Accela UPLC system coupled to Accela open autosampler on an Agilent C18 (100×2.1 mm id) UPLC column. The autosampler was temperature controlled and operating at 10° C. The mobile phase used for the chromatographic separation was composed of acetonitrile/water containing 0.1% formic acid and was run at a flow rate of 0.5 mL/minute for 4.5 minutes using gradient elution. The column effluent was monitored using TSQ Vantage triple-quadrupole mass spectrometric detector, equipped with an electrospray probe set in the positive ionization mode. Samples were introduced into the ionization source through a heated nebulized probe (350° C.).
(§3) For quantification of compound remaining, disappearance of prodrugs was measured from ratio of peak areas of analyte to IS. Percentage remaining was calculated in the following manner: […]

[5] = Metabolic stability in dog liver microsomes; assay type: in vitro ADME; settings: 10 μM, 37° C.
Protocol: as §1, §2, §3

[6] = In vitro metabolic stability screen in plasma and liver subcellular fractions (results in words); assay type: in vitro ADME; settings: 60 min incubation
Outline: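 Prodrugs at 10 μM were incubated at 37° C in plasma and liver microsomes from mouse, dog, monkey and human. Samples were taken at 0, 30 and 60 min and quenched in acetonitrile. Percent remaining was quantified by LC/MS/MS (positive ESI) as analyte/internal standard peak-area ratio.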

CC(C)OC(=O)OCOC(=O)C(CCC(=O)O)CP(=O)(OCOC(=O)OC(C)C)OCOC(=O)OC(C)C (stereo not drawn) [Compound 10]
chemical stability [1]: sufficient chemical stability | Percentage remaining ([2]; 0 min): 100% | Percentage remaining ([2]; 30 min, listed as TRIS-POC): 5% and 3% | Percentage remaining ([2]; 60 min): 0% | oral bioavailability [3]: excellent oral bioavailability | Percentage remaining ([4]; 0 min): 100% | Percentage remaining ([4]; 30 min): 0% | Percentage remaining ([4]; 60 min): 0% | Percentage remaining ([5]; 0 min): 100% | Percentage remaining ([5]; 30 min): 1% | Percentage remaining ([5]; 60 min): 0% | in vitro metabolic stability [6]: instability in plasma and liver subcellular fractions
